Source: US20150190509A1, “RESIN[…]” (MESTEX AG, priority 2012, published 2015)

Tests used:
[1] = storage stability of RTX dissolved in ethanol with or without protective gas; format: physicochemical
Experimental: Under these circumstances a loss of the RTX dissolved in ethanol occurs, on the order of magnitude of 10% in 3 months. However, if the RTX is dissolved together with argon in ethanol or in other body-compatible solvents, the loss at ambient temperature remains very low. As described in further detail below, RTX in the resiniferatoxin solution according to the invention even loses its undesired tendency to cling to polymeric surfaces.

[2] = loss of RTX on contact with polymer (polypropylene) syringe; format: physicochemical; settings: diluted ready-for-use solution (buffer solution and hyaluronic acid), kept in polypropylene syringe for 10 minutes
Excerpt: An additional positive property of the resiniferatoxin solution according to the invention is the fact that the substance is stabilized even in a diluted, ready-for-use solution (i.e. diluted with a buffer solution and hyaluronic acid), so that it can also be used in combination with commercial, polymer plastic syringes which are usually produced from polypropylene, polyethylene, polyurethane and other materials. To date, it has been considered absolutely necessary for the RTX solution not to come in contact with the polymer, because it binds immediately to it.

Structure (SMILES): C=C(C)[C@]12C[C@@H](C)[C@@]34O[C@](Cc5ccccc5)(O[C@@H]1[C@@H]3C=C(COC(=O)Cc1ccc(O)c(OC)c1)C[C@]1(O)C(=O)C(C)=C[C@@H]41)O2 [RTX, Resiniferatoxin]
- RTX content (stability of the dissolved RTX) over months ([1]; RTX dissolved in ethanol at 5° C. with 0.07 wt% argon, second measurement series): 100%
- RTX content (stability of the dissolved RTX) over months ([1]; RTX dissolved in ethanol at 5° C. without additional protective gas (argon), first measurement series): continuous decrease
- RTX content (stability of the dissolved RTX) over months ([1]; RTX dissolved in ethanol at 25° C. with 0.07 wt % argon, third measurement series): 100%
- loss of RTX at ambient temperature ([1]; RTX dissolved together with argon in ethanol or other body-compatible solvents, ambient temperature): very low
- loss of the RTX dissolved in ethanol ([1]; frozen RTX stored under protective gas (argon), then dissolved with ethanol, in 3 months): ~10%
- loss of RTX in polypropylene syringe [2]: without measurable loss
